Columns and labels:
Experiment in all cases: biochemical
Type in all cases: biochemical
[1] = target: T1, 382 unique human kinases (Homo sapiens, UniProt P15735); settings: PHKg2, compound at 10 uM, duplicate values; for remaining activity at 10 µM: read-out: % Enzyme Activity (relative to DMSO controls)
T1 construct: purchased Reaction Biology (HotSpot contract assay)
T1 sequence (P15735 1-406): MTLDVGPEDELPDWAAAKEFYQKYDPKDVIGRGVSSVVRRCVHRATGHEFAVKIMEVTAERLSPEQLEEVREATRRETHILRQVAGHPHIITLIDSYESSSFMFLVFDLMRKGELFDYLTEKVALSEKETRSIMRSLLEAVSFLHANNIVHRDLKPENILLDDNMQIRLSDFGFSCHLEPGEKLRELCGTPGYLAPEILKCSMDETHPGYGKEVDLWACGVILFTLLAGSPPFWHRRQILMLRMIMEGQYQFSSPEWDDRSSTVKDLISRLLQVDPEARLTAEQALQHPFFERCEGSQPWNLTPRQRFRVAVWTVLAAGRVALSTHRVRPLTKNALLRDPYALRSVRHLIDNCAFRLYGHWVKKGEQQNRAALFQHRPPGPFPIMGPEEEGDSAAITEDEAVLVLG

[2] = target: T2, 382 unique human kinases (Homo sapiens, UniProt Q8IWQ3); settings: kinase BRSK2, compound 10 uM; for remaining activity at 10 µM: read-out: % Enzyme Activity (relative to DMSO controls)
T2 construct: purchased Reaction Biology (HotSpot contract assay)
T2 sequence (Q8IWQ3 1-736): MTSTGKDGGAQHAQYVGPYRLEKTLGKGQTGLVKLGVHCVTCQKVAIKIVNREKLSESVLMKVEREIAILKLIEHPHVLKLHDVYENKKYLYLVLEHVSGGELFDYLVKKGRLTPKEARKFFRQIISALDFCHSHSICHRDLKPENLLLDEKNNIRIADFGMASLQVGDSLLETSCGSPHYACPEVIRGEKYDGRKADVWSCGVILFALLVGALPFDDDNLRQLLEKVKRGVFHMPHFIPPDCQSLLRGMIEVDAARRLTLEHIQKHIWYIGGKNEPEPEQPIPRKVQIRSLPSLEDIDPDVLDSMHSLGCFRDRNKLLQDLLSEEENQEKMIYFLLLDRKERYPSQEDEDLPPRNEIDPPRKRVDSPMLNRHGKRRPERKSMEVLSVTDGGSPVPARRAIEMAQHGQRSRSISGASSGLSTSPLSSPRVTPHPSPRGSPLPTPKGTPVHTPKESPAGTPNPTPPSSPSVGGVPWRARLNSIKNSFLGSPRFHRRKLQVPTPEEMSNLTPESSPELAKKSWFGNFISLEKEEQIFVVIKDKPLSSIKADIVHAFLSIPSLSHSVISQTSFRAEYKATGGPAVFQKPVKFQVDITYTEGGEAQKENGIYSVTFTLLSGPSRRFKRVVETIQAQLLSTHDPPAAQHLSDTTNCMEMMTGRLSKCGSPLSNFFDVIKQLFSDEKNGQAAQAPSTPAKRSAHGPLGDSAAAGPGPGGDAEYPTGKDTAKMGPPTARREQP

[3] = target: T3, 382 unique human kinases (Homo sapiens, UniProt Q8IY84); settings: NIM1, 10 uM; for remaining activity at 10 µM: read-out: % Enzyme Activity (relative to DMSO controls)
T3 construct: purchased Reaction Biology (HotSpot contract assay)
T3 sequence (Q8IY84 whole entry): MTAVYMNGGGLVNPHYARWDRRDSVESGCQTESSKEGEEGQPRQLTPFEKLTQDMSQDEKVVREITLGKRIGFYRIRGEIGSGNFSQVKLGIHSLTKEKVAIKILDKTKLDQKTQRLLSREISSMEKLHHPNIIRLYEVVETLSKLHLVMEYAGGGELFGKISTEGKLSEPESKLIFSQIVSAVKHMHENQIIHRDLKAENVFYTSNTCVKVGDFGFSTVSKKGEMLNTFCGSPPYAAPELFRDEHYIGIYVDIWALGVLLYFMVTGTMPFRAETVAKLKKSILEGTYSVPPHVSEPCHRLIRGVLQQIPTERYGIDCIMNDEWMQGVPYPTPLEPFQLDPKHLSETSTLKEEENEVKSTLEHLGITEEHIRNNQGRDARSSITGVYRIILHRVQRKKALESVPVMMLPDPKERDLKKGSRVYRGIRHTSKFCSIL

[4] = target: T4, 382 unique human kinases (Homo sapiens, UniProt P06239); settings: LCK, [ATP] 15 µM
T4 construct: purchased Reaction Biology (HotSpot contract assay)
T4 sequence (P06239 whole entry): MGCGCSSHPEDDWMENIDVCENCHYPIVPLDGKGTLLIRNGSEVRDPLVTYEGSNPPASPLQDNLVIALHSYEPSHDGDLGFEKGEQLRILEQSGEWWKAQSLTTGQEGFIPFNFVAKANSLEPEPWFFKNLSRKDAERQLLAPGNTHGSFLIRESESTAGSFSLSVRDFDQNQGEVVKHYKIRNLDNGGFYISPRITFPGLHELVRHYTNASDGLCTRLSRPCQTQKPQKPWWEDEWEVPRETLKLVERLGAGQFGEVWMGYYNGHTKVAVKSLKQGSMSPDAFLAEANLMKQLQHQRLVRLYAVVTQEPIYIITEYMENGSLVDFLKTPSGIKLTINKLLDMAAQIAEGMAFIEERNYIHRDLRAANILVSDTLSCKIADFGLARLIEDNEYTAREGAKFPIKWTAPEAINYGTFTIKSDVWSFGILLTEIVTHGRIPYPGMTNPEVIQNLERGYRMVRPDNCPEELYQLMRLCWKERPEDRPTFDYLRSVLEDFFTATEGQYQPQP

[5] = target: T5, 382 unique human kinases (Homo sapiens, UniProt P49840); settings: GSK3a, [ATP] 30 µM, compound 10 uM; for remaining activity at 10 µM: read-out: % Enzyme Activity (relative to DMSO controls)
T5 construct: purchased Reaction Biology (HotSpot contract assay)
T5 sequence (P49840 whole entry): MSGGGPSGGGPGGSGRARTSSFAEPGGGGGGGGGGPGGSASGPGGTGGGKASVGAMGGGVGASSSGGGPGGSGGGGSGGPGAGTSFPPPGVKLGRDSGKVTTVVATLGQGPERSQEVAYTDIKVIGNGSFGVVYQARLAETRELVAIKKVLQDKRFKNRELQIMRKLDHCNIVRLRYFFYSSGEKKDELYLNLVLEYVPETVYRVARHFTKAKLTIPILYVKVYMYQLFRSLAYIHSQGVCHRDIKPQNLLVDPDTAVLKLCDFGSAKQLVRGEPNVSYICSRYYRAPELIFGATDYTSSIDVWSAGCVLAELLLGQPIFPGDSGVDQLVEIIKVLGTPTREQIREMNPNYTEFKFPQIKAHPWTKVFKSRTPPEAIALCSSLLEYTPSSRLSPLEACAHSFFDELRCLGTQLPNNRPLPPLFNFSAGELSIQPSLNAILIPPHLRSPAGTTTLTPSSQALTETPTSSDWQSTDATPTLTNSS

[6] = target: T6, 382 unique human kinases (Homo sapiens, UniProt Q9NZJ5); settings: EIF2AK3, 10 uM; for remaining activity at 10 µM: read-out: % Enzyme Activity (relative to DMSO controls)
T6 construct: purchased Reaction Biology (HotSpot contract assay)
T6 sequence (Q9NZJ5 30-1116): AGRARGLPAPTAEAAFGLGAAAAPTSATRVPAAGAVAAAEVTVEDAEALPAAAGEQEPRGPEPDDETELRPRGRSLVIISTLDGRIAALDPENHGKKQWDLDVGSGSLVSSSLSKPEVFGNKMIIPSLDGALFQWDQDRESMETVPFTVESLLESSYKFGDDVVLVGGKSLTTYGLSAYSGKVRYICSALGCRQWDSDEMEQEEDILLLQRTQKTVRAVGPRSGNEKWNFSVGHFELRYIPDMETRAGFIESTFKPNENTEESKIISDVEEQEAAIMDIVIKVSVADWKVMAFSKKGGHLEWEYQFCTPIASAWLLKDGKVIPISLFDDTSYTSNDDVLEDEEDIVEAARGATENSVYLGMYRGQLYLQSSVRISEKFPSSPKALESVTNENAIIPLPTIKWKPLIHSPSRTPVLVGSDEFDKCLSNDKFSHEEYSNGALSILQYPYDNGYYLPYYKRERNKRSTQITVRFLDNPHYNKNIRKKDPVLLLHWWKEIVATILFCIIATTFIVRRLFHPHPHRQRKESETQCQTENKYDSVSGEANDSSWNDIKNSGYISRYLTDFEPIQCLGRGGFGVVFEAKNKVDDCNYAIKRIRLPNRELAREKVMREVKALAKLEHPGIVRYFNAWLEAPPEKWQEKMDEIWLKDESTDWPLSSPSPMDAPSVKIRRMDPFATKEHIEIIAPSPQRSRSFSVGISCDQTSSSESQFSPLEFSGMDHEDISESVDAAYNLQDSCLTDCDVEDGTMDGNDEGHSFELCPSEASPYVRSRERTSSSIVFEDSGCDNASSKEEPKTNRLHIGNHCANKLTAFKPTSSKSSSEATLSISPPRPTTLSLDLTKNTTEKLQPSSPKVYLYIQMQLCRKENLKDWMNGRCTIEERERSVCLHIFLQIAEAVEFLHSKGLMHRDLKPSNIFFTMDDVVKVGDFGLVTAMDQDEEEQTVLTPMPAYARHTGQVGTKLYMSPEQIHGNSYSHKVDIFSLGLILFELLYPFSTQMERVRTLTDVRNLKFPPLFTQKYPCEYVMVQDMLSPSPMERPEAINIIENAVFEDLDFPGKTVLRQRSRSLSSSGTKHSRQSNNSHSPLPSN

[7] = target: T7, 382 unique human kinases (Homo sapiens, UniProt P21802, V564F); settings: FGFR2 (V564F), [ATP] 30 µM, compound 10 uM; for remaining activity at 10 µM: read-out: % Enzyme Activity (relative to DMSO controls)
T7 construct: purchased Reaction Biology (HotSpot contract assay)
T7 sequence (P21802 22-821 V564F): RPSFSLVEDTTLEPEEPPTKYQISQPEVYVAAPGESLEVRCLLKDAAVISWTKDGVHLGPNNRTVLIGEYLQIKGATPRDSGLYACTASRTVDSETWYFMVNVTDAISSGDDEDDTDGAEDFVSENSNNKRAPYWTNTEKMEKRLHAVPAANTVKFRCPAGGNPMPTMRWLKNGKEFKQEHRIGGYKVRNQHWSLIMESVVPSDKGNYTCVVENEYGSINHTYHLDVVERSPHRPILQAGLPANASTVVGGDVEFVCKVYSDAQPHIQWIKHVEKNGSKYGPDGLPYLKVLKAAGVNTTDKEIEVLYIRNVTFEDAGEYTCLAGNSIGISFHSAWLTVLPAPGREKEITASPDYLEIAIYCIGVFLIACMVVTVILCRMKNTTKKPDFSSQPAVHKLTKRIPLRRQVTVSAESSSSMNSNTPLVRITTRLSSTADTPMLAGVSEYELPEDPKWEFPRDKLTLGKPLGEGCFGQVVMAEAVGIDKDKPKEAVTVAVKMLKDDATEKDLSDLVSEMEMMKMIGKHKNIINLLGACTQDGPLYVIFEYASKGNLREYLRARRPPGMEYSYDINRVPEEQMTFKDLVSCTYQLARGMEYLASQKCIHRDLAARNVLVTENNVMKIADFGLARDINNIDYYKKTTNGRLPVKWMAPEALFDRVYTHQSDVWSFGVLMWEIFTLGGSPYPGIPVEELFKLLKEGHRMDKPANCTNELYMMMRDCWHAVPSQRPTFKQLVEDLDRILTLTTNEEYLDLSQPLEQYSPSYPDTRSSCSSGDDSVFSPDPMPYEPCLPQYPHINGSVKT

[8] = compound 10 uM, read-out: % Enzyme Activity (relative to DMSO controls)

Structure (SMILES)	remaining activity at 10 µM [1] [%]	remaining activity at 10 µM [2] [%]	remaining activity at 10 µM [3] [%]	remaining activity at 1 µM ([4]; compound 1 uM, read-out: % Enzyme Activity (relative to DMSO controls)) [%]	remaining activity at 10 µM [4, 8] [%]	remaining activity at 10 µM [5] [%]	remaining activity at 10 µM [6] [%]	remaining activity at 10 µM [7] [%]	% Enzyme Activity (relative to DMSO controls) [1] [%]	% Enzyme Activity (relative to DMSO controls) [2] [%]	% Enzyme Activity (relative to DMSO controls) [3] [%]	% Enzyme Activity (relative to DMSO controls) ([4]; compound 10 uM) [%]	% Enzyme Activity (relative to DMSO controls) [5] [%]	% Enzyme Activity (relative to DMSO controls) [6] [%]	% Enzyme Activity (relative to DMSO controls) [7] [%]
CC(C)c1cc(-c2n[nH]c(=O)n2-c2ccc3c(ccn3C)c2)c(O)cc1O [Ganetespib (STA9090)]	105	82.8													
CC(C)c1cc(-c2n[nH]c(=O)n2-c2ccc3c(ccn3C)c2)c(O)cc1O [Ganetespib]			90.5	49.3	13.9	21.9	101	41.2							
CCNC(=O)c1noc(-c2cc(C(C)C)c(O)cc2O)c1-c1ccc(CN2CCOCC2)cc1 [Luminespib (AUY-922)]	107	83.9							106.26	83.62					
CCNC(=O)c1noc(-c2cc(C(C)C)c(O)cc2O)c1-c1ccc(CN2CCOCC2)cc1 [Luminespib]			99.8		61	96.4	104	99.4			99.73	58.73	93.84	103.58	98.77

Source: article PMC8550792, “Evolution of kinase polypharmacology across HSP90 drug discovery” (Cell Chemical Biology, 2021)
